Assay results reported in PubChem BioAssay (NCI).
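Cells were grown in 96-well plates and exposed to each compound for 48 hours at five concentrations; endpoints were interpolated linearly between bracketing concentrations, or set to the highest concentration if not reached. The concentration for full growth arrest is given as TGI.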

Experiments:
Test in all cases: DTP human tumour cell line panel, 48 h
[1] = tested on: PC-3 prostate
[2] = tested on: DU-145 prostate
[3] = tested on: HOP-18 NSCLC
[4] = tested on: M14 melanoma
[5] = tested on: SN12C renal
[6] = tested on: ACHN renal
[7] = tested on: UACC-62 melanoma
[8] = tested on: SK-MEL-5 melanoma
[9] = tested on: UO-31 renal
[10] = tested on: SF-268 CNS
[11] = tested on: SR leukemia
[12] = tested on: SF-539 CNS
[13] = tested on: COLO 205 colon
[14] = tested on: MCF7 breast
[15] = tested on: DMS 273 small cell lung
[16] = tested on: HCT-15 colon
[17] = tested on: LOX IMVI melanoma
[18] = tested on: HT29 colon
[19] = tested on: M19-MEL melanoma
[20] = tested on: MDA-MB-435
[21] = tested on: MDA-MB-231 breast
[22] = tested on: NCI-H460 lung
[23] = tested on: LXFL 529 NSCLC
[24] = tested on: HOP-62 NSCLC
[25] = tested on: SK-OV-3 ovarian
[26] = tested on: 786-0 renal
[27] = tested on: RPMI-8226 leukemia
[28] = tested on: K-562 leukemia
[29] = tested on: TK-10 renal
[30] = tested on: EKVX NSCLC
[31] = tested on: NCI/ADR-RES ovarian
[32] = tested on: SK-MEL-2 melanoma
[33] = tested on: SW-620 colon
[34] = tested on: MALME-3M melanoma
[35] = tested on: NCI-H522 lung
[36] = tested on: OVCAR-4 ovarian
[37] = tested on: SNB-78 CNS
[38] = tested on: OVCAR-3 ovarian
[39] = tested on: OVCAR-8 ovarian
[40] = tested on: IGROV1 ovarian
[41] = tested on: DLD-1 colon
[42] = tested on: UACC-257 melanoma
[43] = tested on: SNB-75 CNS
[44] = tested on: SK-MEL-28 melanoma
[45] = tested on: MDA-N
[46] = tested on: HCC-2998 colon
[47] = tested on: HCT-116 colon
[48] = tested on: KM12 colon
[49] = tested on: XF 498 CNS
[50] = tested on: A549 NSCLC
[51] = tested on: T-47D breast
[52] = tested on: NCI-H226 lung
[53] = tested on: RXF 393 renal
[54] = tested on: BT-549 breast
[55] = tested on: A498 renal
[56] = tested on: U251 CNS
[57] = tested on: CAKI-1 renal
[58] = tested on: SNB-19 CNS
[59] = tested on: MOLT-4 leukemia
[60] = tested on: OVCAR-5 ovarian
[61] = tested on: SF-295 CNS
[62] = tested on: RXF-631 renal
[63] = tested on: HOP-92 NSCLC
[64] = tested on: KM20L2 colon
[65] = tested on: DMS 114 small cell lung
[66] = tested on: CCRF-CEM leukemia
[67] = tested on: NCI-H23 lung
[68] = tested on: HL-60(TB) leukemia

In the case of `CCOC(=O)N1CCc2cc(OC)c(OC)c3c2c1cc1cc(OC)c(OC)cc13`, the TGI [1] is reported as > 100 µM, the TGI [2] is reported as > 100 µM and the TGI [3] is reported as > 100 µM. The TGI [4] was 63.6 µM, the TGI [5] was > 100 µM and the TGI [6] was > 95 µM. The TGI [7] was 63 µM, the TGI [8] was 32.9 µM and the TGI [9] was > 100 µM. The TGI [10] was > 100 µM, the TGI [11] was > 38.6 µM and the TGI [12] was 9.17 µM. The TGI [13] was 9.06 µM, the TGI [14] was 32.8 µM and the TGI [15] was > 45.2 µM. For the same compound, the TGI [16] was 37.9 µM, the TGI [17] was 52.3 µM and the TGI [18] was 21.6 µM. For the same compound, the TGI [19] was > 100 µM, the TGI [20] was 2540 nM and the TGI [21] was > 100 µM. For the same compound, the TGI [22] was 28.5 µM, the TGI [23] was > 100 µM and the TGI [24] was > 83.6 µM. For the same compound, the TGI [25] was > 51.1 µM, the TGI [26] was > 100 µM and the TGI [27] was 60.9 µM. For the same compound, the TGI [28] was > 75.9 µM, the TGI [29] was > 100 µM and the TGI [30] was > 100 µM. The TGI [31] was 5.37 µM, the TGI [32] was > 51.8 µM and the TGI [33] was 81.1 µM. For the same compound, the TGI [34] was 51.5 µM, the TGI [35] was 4.3 µM and the TGI [36] was > 95.3 µM. For the same compound, the TGI [37] was > 100 µM, the TGI [38] was 8.64 µM and the TGI [39] was > 100 µM. For the same compound, the TGI [40] was > 100 µM, the TGI [41] was > 100 µM and the TGI [42] was > 81.7 µM. The TGI [43] was 8.4 µM, the TGI [44] was > 100 µM and the TGI [45] was 599 nM. It also gave a TGI [46] of 55.6 µM, a TGI [47] of 30.7 µM and a TGI [48] of 67.7 µM. The TGI [49] was 69 µM, the TGI [50] was > 100 µM and the TGI [51] was > 60.2 µM. The TGI [52] was > 100 µM, the TGI [53] was 12.1 µM and the TGI [54] was 3.65 µM. It also gave a TGI [55] of 14.7 µM, a TGI [56] of 67.1 µM and a TGI [57] of 84.2 µM. The TGI [58] was > 100 µM, the TGI [59] was > 100 µM and the TGI [60] was > 100 µM. It also gave a TGI [61] of 35.2 µM, a TGI [62] of 66 µM and a TGI [63] of 44.8 µM. The TGI [64] was 7.16 µM, the TGI [65] was 7.1 µM and the TGI [66] was > 58.3 µM. The TGI [67] was 55.6 µM and the TGI [68] was > 100 µM.
